Results from US12599136B2, “Substituted isophthalic acid diamides and their use as herbicides” (Bayer Aktiengesellschaft, priority 2020, dated 2026).

How the values were obtained:
Format in all cases: in vivo
Hordeum murinum = assay: Pre-emergence herbicidal action against HORMU; details: 320 g/ha; visual score after 3 weeks vs untreated controls
Method in brief: (§1)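 Sandy loam pots, seeds covered with soil, then surface-treated with WP or EC formulations at 600–800 l/ha water plus 0.2% wetting agent. Greenhouse, 3 weeks. Percent damage vs untreated controls.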

Echinochloa crus-galli [1] = assay: Pre-emergence herbicidal action against ECHCG; details: 320 g/ha; visual score after 3 weeks vs untreated controls
Method in brief: as §1

Cyperus esculentus [2] = assay: Pre-emergence herbicidal action against CYPES; details: visual score after 3 weeks vs untreated controls
Method in brief: as §1

Stellaria media [3] = assay: Post-emergence herbicidal action against STEME; details: visual assessment about 3 weeks after treatment
Method in brief: (§2)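 Herbicidal action is a visual percentage rating (0% = as untreated control, 100% = plants dead) made roughly 3 weeks after treatment. Plants were grown in sandy loam in the greenhouse and treated at the one-leaf stage, 2 to 3 weeks post-sowing. Treatment was a foliar spray of wettable-powder or emulsion-concentrate formulations at 600 to 800 l/ha water plus 0.2% wetting agent.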

Setaria viridis [4] = assay: Post-emergence herbicidal action against SETVI; details: visual assessment about 3 weeks after treatment
Method in brief: as §2

Polygonum convolvulus [5] = assay: Pre-emergence herbicidal action against POLCO
Method in brief: as §1

Avena fatua [6] = assay: Pre-emergence herbicidal action against AVEFA; details: visual score after 3 weeks vs untreated controls
Method in brief: as §1

Matricaria inodora [7] = assay: Post-emergence herbicidal action against MATIN; details: visual assessment about 3 weeks after treatment
Method in brief: as §2

Veronica persica [8] = assay: Pre-emergence herbicidal action against VERPE
Method in brief: as §1

Cyperus esculentus [9] = assay: Post-emergence herbicidal action against CYPES; details: 80 g/ha, visual assessment about 3 weeks after treatment
Description: (§3) Seeds of monocotyledonous and dicotyledonous weed and crop plants are laid out in sandy loam soil in wood-fiber pots, covered with soil and cultivated in a greenhouse under good growth conditions. 2 to 3 weeks after sowing, the test plants are treated at the one-leaf stage. The compounds of the invention, formulated in the form of wettable powders (WP) or as emulsion concentrates (EC), are then sprayed onto the green parts of the plants in the form of an aqueous suspension or emulsion at a water application rate equivalent to 600 to 800 l/ha, with addition of 0.2% wetting agent. After the test plants have been left to stand in the greenhouse under optimal growth conditions for about 3 weeks, the action of the preparations is assessed visually in comparison to untreated controls (herbicidal action in percent (%): 100% activity=the plants have died, 0% activity=like control plants). […] The tables below illustrate, in an illustrative manner, the post-emergence herbicidal action of the compounds of the invention, the herbicidal activity being stated in percent.

Alopecurus myosuroides [10] = assay: Post-emergence herbicidal action against ALOMY
Method in brief: as §2

Setaria viridis [11] = assay: Pre-emergence herbicidal action against SETVI
Method in brief: as §1

Stellaria media [12] = assay: Pre-emergence herbicidal action against STEME
Method in brief: as §1

Abutilon theophrasti [13] = assay: Post-emergence herbicidal action against ABUTH
Method in brief: as §2

Amaranthus retroflexus [14] = assay: Pre-emergence herbicidal action against AMARE; details: visual score after 3 weeks vs untreated controls
Method in brief: as §1

Matricaria inodora [15] = assay: Pre-emergence herbicidal action against MATIN; details: visual score after 3 weeks vs untreated controls
Method in brief: as §1

Avena fatua [16] = assay: Post-emergence herbicidal action against AVEFA; details: visual assessment about 3 weeks after treatment
Method in brief: as §2

Lolium rigidum [17] = assay: Pre-emergence herbicidal action against LOLRI; details: 320 g/ha
Method in brief: as §1

Pharbitis purpurea = assay: Post-emergence herbicidal action against PHBPU; details: visual assessment about 3 weeks after treatment
Method in brief: as §2

Veronica persica [18] = assay: Post-emergence herbicidal action against VERPE; details: visual assessment about 3 weeks after treatment
Method in brief: as §2

Alopecurus myosuroides [19] = assay: Pre-emergence herbicidal action against ALOMY; details: visual score after 3 weeks vs untreated controls
Method in brief: as §1

Viola tricolor [20] = assay: Post-emergence herbicidal action against VIOTR
Method in brief: as §2

Polygonum convolvulus [21] = assay: Post-emergence herbicidal action against POLCO; details: 80 g/ha, visual assessment about 3 weeks after treatment
Method in brief: as §2

Abutilon theophrasti [22] = assay: Pre-emergence herbicidal action against ABUTH; details: visual score after 3 weeks vs untreated controls
Method in brief: as §1

Lolium rigidum [23] = assay: Post-emergence herbicidal action against LOLRI; details: 80 g/ha
Description: as §3

Viola tricolor [24] = assay: Pre-emergence herbicidal action against VIOTR; details: 320 g/ha
Method in brief: as §1

Echinochloa crus-galli [25] = assay: Post-emergence herbicidal action against ECHCG; details: visual assessment about 3 weeks after treatment
Method in brief: as §2

Amaranthus retroflexus [26] = assay: Post-emergence herbicidal action against AMARE; details: visual assessment about 3 weeks after treatment
Method in brief: as §2

SMILES: CCn1nnnc1NC(=O)c1ccc(C(F)(F)F)c(C(=O)N2CCCC2)c1Cl [Example 2-152]
- Pre-emergence action against HORMU (Hordeum murinum): 80%
- Pre-emergence action against ECHCG (Echinochloa crus-galli [1]): 100%
- Pre-emergence action against CYPES (Cyperus esculentus [2]; 80 g/ha): 80%
- Pre-emergence action against CYPES (Cyperus esculentus [2]; 320 g/ha): 100%
- Post-emergence action against STEME in % (Stellaria media [3]; 5 g/ha): 80%
- Post-emergence action against STEME in % (Stellaria media [3]; 20 g/ha): 90%
- Post-emergence action against STEME in % (Stellaria media [3]; 80 g/ha): 90%
- Post-emergence action against SETVI in % (Setaria viridis [4]; 20 g/ha): 80%
- Post-emergence action against SETVI in % (Setaria viridis [4]; 80 g/ha): 100%
- Pre-emergence action against POLCO (Polygonum convolvulus [5]; 80 g/ha): 80%
- Pre-emergence action against POLCO (Polygonum convolvulus [5]; 320 g/ha): 90%
- Pre-emergence action against AVEFA (Avena fatua [6]; 80 g/ha): 100%
- Pre-emergence action against AVEFA (Avena fatua [6]; 320 g/ha): 100%
- Post-emergence action against MATIN in % (Matricaria inodora [7]; 5 g/ha): 80%
- Post-emergence action against MATIN in % (Matricaria inodora [7]; 20 g/ha): 80%
- Post-emergence action against MATIN in % (Matricaria inodora [7]; 80 g/ha): 100%
- Pre-emergence action against VERPE (Veronica persica [8]; 80 g/ha): 80%
- Pre-emergence action against VERPE (Veronica persica [8]; 320 g/ha): 100%
- Post-emergence action against CYPES in % (Cyperus esculentus [9]): 80%
- Post-emergence action against ALOMY (Alopecurus myosuroides [10]; 5 g/ha): 80%
- Post-emergence action against ALOMY (Alopecurus myosuroides [10]; 20 g/ha): 90%
- Post-emergence action against ALOMY (Alopecurus myosuroides [10]; 80 g/ha): 100%
- Pre-emergence action against SETVI (Setaria viridis [11]; 80 g/ha): 90%
- Pre-emergence action against SETVI (Setaria viridis [11]; 320 g/ha): 100%
- Pre-emergence action against STEME (Stellaria media [12]; 20 g/ha): 100%
- Pre-emergence action against STEME (Stellaria media [12]; 80 g/ha): 100%
- Pre-emergence action against STEME (Stellaria media [12]; 320 g/ha): 100%
- Post-emergence action against ABUTH (Abutilon theophrasti [13]; 5 g/ha): 80%
- Post-emergence action against ABUTH (Abutilon theophrasti [13]; 20 g/ha): 80%
- Post-emergence action against ABUTH (Abutilon theophrasti [13]; 80 g/ha): 80%
- Pre-emergence action against AMARE (Amaranthus retroflexus [14]; 20 g/ha): 100%
- Pre-emergence action against AMARE (Amaranthus retroflexus [14]; 80 g/ha): 100%
- Pre-emergence action against AMARE (Amaranthus retroflexus [14]; 320 g/ha): 100%
- Pre-emergence action against MATIN (Matricaria inodora [15]; 20 g/ha): 90%
- Pre-emergence action against MATIN (Matricaria inodora [15]; 80 g/ha): 100%
- Pre-emergence action against MATIN (Matricaria inodora [15]; 320 g/ha): 100%
- Post-emergence action against AVEFA in % (Avena fatua [16]; 5 g/ha): 80%
- Post-emergence action against AVEFA in % (Avena fatua [16]; 20 g/ha): 100%
- Post-emergence action against AVEFA in % (Avena fatua [16]; 80 g/ha): 100%
- Pre-emergence action against LOLRI (Lolium rigidum [17]): 100%
- Post-emergence action against PHBPU in % (Pharbitis purpurea; 20 g/ha): 80%
- Post-emergence action against PHBPU in % (Pharbitis purpurea; 80 g/ha): 80%
- Post-emergence action against VERPE in % (Veronica persica [18]; 5 g/ha): 80%
- Post-emergence action against VERPE in % (Veronica persica [18]; 20 g/ha): 80%
- Post-emergence action against VERPE in % (Veronica persica [18]; 80 g/ha): 80%
- Pre-emergence action against ALOMY (Alopecurus myosuroides [19]; 80 g/ha): 90%
- Pre-emergence action against ALOMY (Alopecurus myosuroides [19]; 320 g/ha): 100%
- Post-emergence action against VIOTR in % (Viola tricolor [20]; 20 g/ha): 100%
- Post-emergence action against VIOTR in % (Viola tricolor [20]; 80 g/ha): 100%
- Post-emergence action against POLCO in % (Polygonum convolvulus [21]): 80%
- Pre-emergence action against ABUTH (Abutilon theophrasti [22]; 20 g/ha): 100%
- Pre-emergence action against ABUTH (Abutilon theophrasti [22]; 80 g/ha): 100%
- Pre-emergence action against ABUTH (Abutilon theophrasti [22]; Dosage column 320 g/ha (heading prints 3200 g/ha)): 100%
- Post-emergence action against LOLRI in % (Lolium rigidum [23]): 90%
- Pre-emergence action against VIOTR (Viola tricolor [24]): 100%
- Post-emergence action against ECHCG in % (Echinochloa crus-galli [25]; 20 g/ha): 100%
- Post-emergence action against ECHCG in % (Echinochloa crus-galli [25]; 80 g/ha): 100%
- Post-emergence action against AMARE in % (Amaranthus retroflexus [26]; 5 g/ha): 100%
- Post-emergence action against AMARE in % (Amaranthus retroflexus [26]; 20 g/ha): 100%
- Post-emergence action against AMARE in % (Amaranthus retroflexus [26]; 80 g/ha): 100%
